For this data set, the system named is CCRIS mutagenicity, Ames/micronucleus/aberration tests. Put plainly: CCRIS mutagenicity studies.
The mark [1] stands for this setting: Test System: AMES SALMONELLA TYPHIMURIUM, Strain/Indicator: TA1535, Metabolic Activation: NONE, Method: PREINCUBATION

The source made the active and inactive calls. The rule behind the calls is not given here.

As to `CNc1ccccc1C(=O)OC`, the mutagenic call was “inactive; negative” (Test System: AMES SALMONELLA TYPHIMURIUM, Strain/Indicator: TA97, Metabolic Activation: NONE, Method: PREINCUBATION); “inactive; negative” (Test System: AMES SALMONELLA TYPHIMURIUM, Strain/Indicator: TA97, Metabolic Activation: RAT, LIVER, S-9, AROCLOR 1254, Method: PREINCUBATION); “inactive; negative” (Test System: AMES SALMONELLA TYPHIMURIUM, Strain/Indicator: TA102, Metabolic Activation: NONE, Method: PREINCUBATION); “inactive; negative” (Test System: AMES SALMONELLA TYPHIMURIUM, Strain/Indicator: TA102, Metabolic Activation: RAT, LIVER, S-9, AROCLOR 1254, Method: PREINCUBATION); “inactive; negative” (Test System: UDS RODENT HEPATOCYTES, Strain/Indicator: THY INCORP (NON-S-PHASE), Metabolic Activation: NONE, Method: AUTORADIOGRAPHY).

As to `C=CCCl`, the mutagenic call reads like this: (End Point: IN VITRO CHROMOSOMAL ABERRATIONS, Test System: CHL CELLS, Metabolic Activation: RAT, LIVER, S-9, SODIUM PHENOBARBITAL AND 5,6-BENZOFLAVONE) “active; positive (structural changes); authors report equivocal results for ploidy chang”; (Test System: AMES SALMONELLA TYPHIMURIUM, Strain/Indicator: TA100, Metabolic Activation: NONE, Method: DESICCATOR) “active; positive”; (Test System: AMES SALMONELLA TYPHIMURIUM, Strain/Indicator: TA100, Metabolic Activation: NONE, Method: PREINCUBATION (20-180 MIN)) “inactive; negative”; (Test System: AMES SALMONELLA TYPHIMURIUM, Strain/Indicator: TA100, Metabolic Activation: RAT, LIVER, S-9, AROCLOR 1254 (4 OR 12 MG/ML PROTEIN), Method: PREINCUBATION (20 OR 60 MIN)) “inactive; negative”; (Test System: AMES SALMONELLA TYPHIMURIUM, Strain/Indicator: TA100, Metabolic Activation: RAT, LIVER, S-9, AROCLOR 1254 (4 OR 12 MG/ML PROTEIN), Method: PREINCUBATION (120 OR 180 MIN)) “active; positive”; (Test System: AMES SALMONELLA TYPHIMURIUM, Strain/Indicator: TA100, Metabolic Activation: RAT, LIVER, S-9, AROCLOR 1254, SERUM ALBUMIN (4 MG/ML) (8 MG/ML PROTEIN), Method: PREINCUBATION (120 MIN)) “inactive; negative”. Besides, the mutagenic call reads like this: (Test System: AMES SALMONELLA TYPHIMURIUM, Strain/Indicator: TA100, Metabolic Activation: RAT, LIVER, S-9, AROCLOR 1254, Method: DESICCATOR) “active; positive”; (Test System: AMES SALMONELLA TYPHIMURIUM, Strain/Indicator: TA102, Metabolic Activation: S-9, Method: STANDARD PLATE) “inactive; negative”; (Test System: AMES SALMONELLA TYPHIMURIUM, Strain/Indicator: TA1535, Metabolic Activation: NONE, Method: DESICCATOR) “active; positive”; under setting [1], “active; positive”; (Test System: AMES SALMONELLA TYPHIMURIUM, Strain/Indicator: TA1535, Metabolic Activation: RAT, LIVER, S-9, AROCLOR 1254, Method: DESICCATOR) “active; positive”; (Test System: AMES SALMONELLA TYPHIMURIUM, Strain/Indicator: TA1535, Metabolic Activation: RAT, LIVER, S-9, AROCLOR 1254, Method: PREINCUBATION) “active; positive”. Moreover, the mutagenic call is “inactive; negative” (Test System: AMES SALMONELLA TYPHIMURIUM, Strain/Indicator: TA2638, Metabolic Activation: S-9, Method: STANDARD PLATE); “inactive; negative” (Test System: Ames Salmonella typhimurium, Strain/Indicator: TA98, Metabolic Activation: Rat, Liver, S9, Sodium phenobarbital and 5,6-benzoflavone (10%), Method: Preincubation); “inactive; negative” (Test System: Ames Salmonella typhimurium, Strain/Indicator: TA100, Metabolic Activation: Rat, Liver, S9, Sodium phenobarbital and 5,6-benzoflavone (10%), Method: Preincubation); “inactive; negative” (Test System: Ames Salmonella typhimurium, Strain/Indicator: TA1537, Metabolic Activation: None, Method: Preincubation); “inactive; negative” (Test System: Ames Salmonella typhimurium, Strain/Indicator: TA1537, Metabolic Activation: Rat, Liver, S9, Sodium phenobarbital and 5,6-benzoflavone (10%), Method: Preincubation); “inactive; positive (negative when allyl chloride dissolved in water)” (Test System: Ames Salmonella typhimurium, Strain/Indicator: YG7108, Metabolic Activation: None, Method: Standard plate). Further, the mutagenic call is, setting by setting: (Test System: Ames Salmonella typhimurium, Strain/Indicator: YG7108, Metabolic Activation: Rat, Liver, S-9, Phenobarbital/beta-naphthoflavone, Method: Standard plate) “active; positive”; (Test System: Ames Salmonella typhimurium, Strain/Indicator: YG7108pin3ERb5, Metabolic Activation: None, Method: Standard plate) “active; positive”; (Test System: E. COLI, Strain/Indicator: WP2 (PKM101), Metabolic Activation: S-9, Method: STANDARD PLATE) “inactive; negative”; (Test System: E. COLI, Strain/Indicator: WP2 UVRA (PKM101), Metabolic Activation: S-9, Method: STANDARD PLATE) “inactive; negative”.

In the case of `CC(C)CCCCCCCOC(=O)c1ccccc1C(=O)OCCCCCCCC(C)C`, the mutagenic call is “inactive; negative” (Test System: AMES SALMONELLA TYPHIMURIUM, Strain/Indicator: TA98, Metabolic Activation: HAMSTER, LIVER, S-9, AROCLOR 1254 (10%), Method: PREINCUBATION); “inactive; negative” (Test System: AMES SALMONELLA TYPHIMURIUM, Strain/Indicator: TA98, Metabolic Activation: NONE, Method: PREINCUBATION); “inactive; negative” (Test System: AMES SALMONELLA TYPHIMURIUM, Strain/Indicator: TA98, Metabolic Activation: RAT, LIVER, S-9, AROCLOR 1254 (10%), Method: PREINCUBATION); “inactive; negative” (Test System: AMES SALMONELLA TYPHIMURIUM, Strain/Indicator: TA100, Metabolic Activation: HAMSTER, LIVER, S-9, AROCLOR 1254 (10%), Method: PREINCUBATION); “inactive; negative” (Test System: AMES SALMONELLA TYPHIMURIUM, Strain/Indicator: TA100, Metabolic Activation: NONE, Method: PREINCUBATION); “inactive; negative” (Test System: AMES SALMONELLA TYPHIMURIUM, Strain/Indicator: TA100, Metabolic Activation: RAT, LIVER, S-9, AROCLOR 1254 (10%), Method: PREINCUBATION). Also, the mutagenic call is, setting by setting: (Test System: AMES SALMONELLA TYPHIMURIUM, Strain/Indicator: TA1535, Metabolic Activation: HAMSTER, LIVER, S-9, AROCLOR 1254 (10%), Method: PREINCUBATION) “inactive; negative”; under setting [1], “inactive; negative”; (Test System: AMES SALMONELLA TYPHIMURIUM, Strain/Indicator: TA1535, Metabolic Activation: RAT, LIVER, S-9, AROCLOR 1254 (10%), Method: PREINCUBATION) “inactive; negative”; (Test System: AMES SALMONELLA TYPHIMURIUM, Strain/Indicator: TA1537, Metabolic Activation: HAMSTER, LIVER, S-9, AROCLOR 1254 (10%), Method: PREINCUBATION) “inactive; negative”; (Test System: AMES SALMONELLA TYPHIMURIUM, Strain/Indicator: TA1537, Metabolic Activation: NONE, Method: PREINCUBATION) “inactive; negative”; (Test System: AMES SALMONELLA TYPHIMURIUM, Strain/Indicator: TA1537, Metabolic Activation: RAT, LIVER, S-9, AROCLOR 1254 (10%), Method: PREINCUBATION) “inactive; negative”. The mutagenic call is “inactive; negative” (Test System: MOUSE LYMPHOMA, Strain/Indicator: L5178Y (TK+/TK-), Metabolic Activation: NONE, Method: SUSPENSION/PLATE) and “inactive; negative” (Test System: MOUSE LYMPHOMA, Strain/Indicator: L5178Y (TK+/TK-), Metabolic Activation: RAT LIVER S-9, Method: SUSPENSION/PLATE).

As to `OC1=c2c(O)cc3cccc4ccc(c2c43)C23CCCCC12O3` (centres undefined), under “Test System: CHINESE HAMSTER V-79, Strain/Indicator: V-79/8-AZAGUANINE, Metabolic Activation: NONE, Method: STANDARD PLATE”, the mutagenic call was “active; positive”.

With `BrCc1ccccc1CBr`, the mutagenic call reads like this: (Test System: AMES SALMONELLA TYPHIMURIUM, Strain/Indicator: TA98, Metabolic Activation: NONE, Method: STANDARD PLATE) “inactive; negative”; (Test System: AMES SALMONELLA TYPHIMURIUM, Strain/Indicator: TA100, Metabolic Activation: NONE, Method: STANDARD PLATE) “inactive; negative”.
